Measurements: patent US20240091324A1, “GASTROINTESTINAL HEALTH COMPOSITION” (priority 2019, published 2024)

Assays:
TNBS colitis [1] = assay: TNBS colitis mouse model with and without prednisolone, change in endoscopic score day 3 to day 11 (Example 12); format: in vivo, C56/BL/6 mice
Method: Colitis was induced in C56/BL/6 mice and 3 days after disease induction daily treatments commenced.
Mice were induced with colitis by administering TNBS in the same manner as example 11. After three days the lesions were scored by endoscopy and the animals treated with i). 150 mg/kg bromelain in water, ii) 150 mg bromelain and rectally administered threonine/sodium butyrate/vitamin D3, iii). 2 mg/kg oral prednisolone or iv). 150 mg bromelain and rectally administered threonine/sodium butyrate/vitamin D3 plus 2 mg/kg oral prednisolone. Endoscopic scores were measured at day 11 and the change in endoscopic score between day 3 and day 11 calculated (FIG. 16).
Groups are i) placebo, ii) 150 mg bromelain in water orally, iii) 150 mg bromelain & 15 mg/kg menthol orally plus GaRP rectally, iv) 150 mg bromelain & 15 mg/kg menthol orally plus GaRP and 2 mg/kg prednisolone rectally, v) 2 mg/kg prednisolone rectally, and vi) GaRP rectally. GaRP is sodium butyrate 185 mg/kg, threonine 280 mg/kg and Vitamin D3 3.84 micrograms per kg. […] The threonine, sodium butyrate and vitamin D3 were formulated and administered as a rectal gavage at the top of the colon to simulate a formulation which releases in the colon; i.e., to achieve administration to the lower intestine.

TNBS colitis [2] = assay: Histological scoring of colitis in colon sections post treatment (Example 14); format: in vivo, C56/BL/6 mice; settings: TNBS colitis mice, 2 mg/kg prednisolone
From the text: Colitis was induced and treated C56/BL/6 mice from examples 11 and 12 were euthanised post treatment and the colons sectioned for histopathological analysis. Each bar represents the mean histopathology score for the treatment groups. Values of the number of animals, means, standard deviations and statistical significance relative to placebo are shown in parentheses.
In this example, the colon was fixed, stained and sectioned before being assessed by microscopy in a blinded manner. Colons were examined not only for active disease but evidence of recovery from disease and scored according to the following criteria. Scoring was performed in triplicate blinded to the scorer with a maximum score of 3 in each of 6 categories.
• Hypervascularization (opening of blood vessels) • Presence of mononuclear cells (architecture also disappear) • Epithelial hyperplasia (elongated crypt and villi) • Epithelial injury (loss of epithelial continuity) • Presence of neutrophils • Lymphoid aggregates (scored 0-2) 0,1-2, >2
Data were collated and analysed by student t test for significance against placebo control.

Enterocyte = settings: menthol was not tested in vitro; published literature; cited from earlier work
[3] = system: Bacteria (AIEC obtained from IBD and IBS patients); settings: menthol was not tested in vitro; published literature; cited from earlier work
Macrophage = settings: menthol was not tested in vitro; published literature; cited from earlier work

In the case of `C[C@]12C=CC(=O)C=C1CC[C@@H]1[C@@H]2[C@@H](O)C[C@@]2(C)[C@H]1CC[C@]2(O)C(=O)CO` [prednisolone, Prednisolone], the “Mean reduction in endoscopic score” value (TNBS colitis [1]; TNBS colitis mice, change day 3 to day 11, 2 mg/kg prednisolone) is reported as 4.25, the “mean improvement in endoscopic score at day 11” value (TNBS colitis [1]; daily treatment from day 3, bromelain 150 mg/kg, menthol 15 mg/kg, prednisolone 2 mg/kg where present, GaRP rectally) is reported as 4.25 and the “Histological score of colitis, Mean” value (TNBS colitis [2]) is reported as 3.5.

In the case of `CC1CCC(C(C)C)C(O)C1` (stereo not drawn) [Menthol], the “therapeutic effective dose, Target cell Enterocyte (pg/cell)” value (Enterocyte) is given as 20 pg/cell, the “therapeutic effective dose, Target cell Bacteria (fg/cell)” value [3] is given as “Not relevant” and the “therapeutic effective dose, Target cell Macrophage (pg/cell)” value (Macrophage) is given as 20 pg/cell.
